According to ChEMBL document CHEMBL1156014, “Synthesis of antibacterial pseudopeptides with less hemolytic activity from a cytotoxic peptide and their pH-dependent activity” (Bioorg Med Chem Lett, 2009):
≈ marks a conversion by molar mass, not a printed value. Where a SMILES comes first, the peptide text is derived from it. The star is where a group is joined. X2 = CC(C)C[C@H](NC[C@H](CCCCN)N*)C(=O)N[C@@H](CC(C)C)C(=O)N[C@@H](CCCCN)C(N)=O

Key:
[1] = tested on: Micrococcus luteus; assay: Antibacterial activity against Micrococcus luteus ATCC 9341 at pH 7.4; assay type: functional
[2] = Toxicity in human erythrocytes assessed as hemolytic activity up to 200 ug/ml at pH 7.4 after 1 hr; assay type: cell-based; conditions: erythrocyte, pH 7.4, 1 h
[3] = Permeability across Escherichia coli large unilamellar vesicles assessed as calcein entrapped leakage from phosphatidylglycerol/phosphatidylcholine at pH 7.4; assay type: ADME
[4] = tested on: Staphylococcus aureus; assay: Antibacterial activity against Staphylococcus aureus ATCC 6538 at pH 7.4; assay type: functional
[5] = tested on: Pseudomonas aeruginosa; assay: Antibacterial activity against Pseudomonas aeruginosa ATCC 9027 at pH 7.4; assay type: functional
[6] = tested on: Micrococcus luteus; assay: Antibacterial activity against Micrococcus luteus ATCC 9341 at pH 8.4; assay type: functional
[7] = tested on: Escherichia coli; assay: Antibacterial activity against Escherichia coli ATCC 25922 at pH 8.4; assay type: functional
[8] = tested on: Escherichia coli; assay: Antibacterial activity against Escherichia coli ATCC 25922 at pH 7.4; assay type: functional
[9] = Permeability across Escherichia coli large unilamellar vesicles assessed as calcein entrapped leakage from phosphatidylglycerol/phosphatidylcholine at pH 8.4; assay type: ADME
[10] = tested on: Staphylococcus aureus; assay: Antibacterial activity against Staphylococcus aureus ATCC 6538 at pH 8.4; assay type: functional
[11] = tested on: Pseudomonas aeruginosa; assay: Antibacterial activity against Pseudomonas aeruginosa ATCC 9027 at pH 8.4; assay type: functional
[12] = Permeability across Escherichia coli large unilamellar vesicles assessed as calcein entrapped leakage from phosphatidylglycerol/phosphatidylcholine at 7.5 uM at pH 7.4; assay type: ADME; conditions: pH 7.4, 7.5 µM
[13] = Permeability across Escherichia coli large unilamellar vesicles assessed as calcein entrapped leakage from phosphatidylglycerol/phosphatidylcholine at 15 uM at pH 8.4; assay type: ADME; conditions: pH 8.4, 15 µM

Row | MIC [1] [µg/mL] | Activity [3] | MIC [4] [µg/mL] | MIC [5] [µg/mL] | MIC [6] [µg/mL] | MIC [7] [µg/mL] | MIC [8] [µg/mL] | Activity [9] | MIC [10] [µg/mL] | MIC [11] [µg/mL] | Activity [12] [%] | Activity [13] [%] | Compound | Activity [2]
1 | 6.25 (≈ 4.07 µM) | Dose-dependent effect | 6.25 (≈ 4.07 µM) | 50 (≈ 32.5 µM) | 6.25 (≈ 4.07 µM) | 25 (≈ 16.3 µM) | 12.5 (≈ 8.14 µM) | Dose-dependent effect | 12.5 (≈ 8.14 µM) | 50 (≈ 32.5 µM) | – | – | CC(=O)N[C@@H](CCCCN)C(=O)N[C@@H](CC(C)C)C(=O)N[C@@H](CC(C)C)C(=O)N[C@@H](CC(C)C)C(=O)N[C@@H](CCCCN)C(=O)N[C@@H](CC(C)C)C(=O)N[C@@H](Cc1c[nH]c2ccccc12)C(=O)N[C@@H](CC(C)C)C(=O)N[C@@H](CCCCN)CN[C@@H](CC(C)C)C(=O)N[C@@H](CC(C)C)C(=O)N[C@@H](CCCCN)C(N)=O (Ac-KLLLKLWL-X2) | Not Active
2 | 6.25 | Dose-dependent effect | 6.25 | 50 | 6.25 | 50 | 12.5 | Dose-dependent effect | 25 | 50 | 90 | 80 | Ac-KLLLKLWLKLLK-NH2 | –
